Reference: article PMC10482975 (Nature Communications, 2023)
Read-outs that look alike come from different tables or passages of the source.

Target: T1, M4 mAChR (Homo sapiens, UniProt P08173)
T1 sequence (P08173 1-479): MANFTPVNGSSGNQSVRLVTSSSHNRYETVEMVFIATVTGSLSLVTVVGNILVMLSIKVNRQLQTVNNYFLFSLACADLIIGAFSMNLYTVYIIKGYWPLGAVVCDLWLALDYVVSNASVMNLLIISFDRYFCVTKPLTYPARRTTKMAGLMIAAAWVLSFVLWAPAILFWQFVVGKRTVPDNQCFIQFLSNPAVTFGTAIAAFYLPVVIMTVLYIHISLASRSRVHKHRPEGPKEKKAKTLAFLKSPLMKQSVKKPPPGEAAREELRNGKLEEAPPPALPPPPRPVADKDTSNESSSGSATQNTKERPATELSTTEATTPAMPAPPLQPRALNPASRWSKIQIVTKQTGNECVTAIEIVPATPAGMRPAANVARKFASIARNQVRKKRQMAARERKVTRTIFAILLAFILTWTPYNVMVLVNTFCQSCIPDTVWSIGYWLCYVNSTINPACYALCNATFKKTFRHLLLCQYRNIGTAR
Test: biochemical
Details: read-out: [3H]-NMS binding remaining (0 min = 100), MEAN, M4 mAChR; for remaining activity at 0.1 µM: 0.1 μM Xano alone; for remaining activity at 1 µM: 1 μM Xano alone; for remaining activity at 10 µM: 10 μM Xano alone

With `CCCCCCOc1nsnc1C1=CCCN(C)C1` [xanomeline] the remaining activity at 0.1 µM (0.5 h, 30 min) was 90.3%, the remaining activity at 1 µM (0.5 h, 30 min) was 87.3% and the remaining activity at 100 µM (0.5 h, 10 μM Atropine + 100 μM Xanomeline, 30 min) was 85.1%. It also gave a remaining activity at 10 µM (0.5 h, 30 min) of 77.6%, a remaining activity at 100 µM (0.5 h, 100 μM Xano alone, 30 min) of 85.7% and a remaining activity at 0.1 µM (1 h, 60 min) of 94.4%. It also gave a remaining activity at 1 µM (1 h, 60 min) of 76.8%, a remaining activity at 100 µM (1 h, 10 μM Atropine + 100 μM Xanomeline, 60 min) of 69.6% and a remaining activity at 10 µM (1 h, 60 min) of 61%. It also gave a remaining activity at 100 µM (1 h, 100 μM Xano alone, 60 min) of 73.5%, a remaining activity at 0.1 µM (1.5 h, 90 min) of 98.4% and a remaining activity at 1 µM (1.5 h, 90 min) of 74.4%. It also gave a remaining activity at 100 µM (1.5 h, 10 μM Atropine + 100 μM Xanomeline, 90 min) of 64.1%, a remaining activity at 10 µM (1.5 h, 90 min) of 50.9% and a remaining activity at 100 µM (1.5 h, 100 μM Xano alone, 90 min) of 62.6%. The remaining activity at 0.1 µM (2 h, 120 min) was 94.7%, the remaining activity at 1 µM (2 h, 120 min) was 64.9% and the remaining activity at 100 µM (2 h, 10 μM Atropine + 100 μM Xanomeline, 120 min) was 52.9%. The remaining activity at 100 µM (2 h, 100 μM Xano alone, 120 min) was 61.2%, the remaining activity at 0.1 µM (3 h, 180 min) was 92.1% and the remaining activity at 1 µM (3 h, 180 min) was 60.5%. For the same molecule, the remaining activity at 10 µM (3 h, 180 min) was 32.7%, the remaining activity at 100 µM (3 h, 100 μM Xano alone, 180 min) was 46.6% and the remaining activity at 0.1 µM (5 h, 300 min) was 89.8%. It also gave a remaining activity at 1 µM (5 h, 300 min) of 57.5%, a remaining activity at 100 µM (5 h, 10 μM Atropine + 100 μM Xanomeline, 300 min) of 26.7% and a remaining activity at 10 µM (5 h, 300 min) of 17.9%. It also gave a remaining activity at 100 µM (5 h, 100 μM Xano alone, 300 min) of 34.6%.
